Data from PubChem BioAssay AID2060886 (Molecular Pharmacology Branch, DTP, NCI, 2025).

System: 653999-131-R-J2-PDC complex spheroids, growth inhibition
Assay: Anticancer human tumor 653999-131-R-J2-PDC patient-derived lung adenocarcinoma cell line growth inhibition [RAS]
Conditions: for IC50: curve of first compound; for viability, T/C: stronger effect = lower value; active = viability on the fitted dose curve at most 10% of control; inactive = the rest
In short: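 Tumour cells grown as complex spheroids with HUVEC endothelial cells and mesenchymal stem cells, treated with RAS pathway inhibitor combinations. Each agent spans half-log steps from near clinical Cmax, or 10 microM where Cmax is unknown.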
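Also: spheroids exposed to the agents for seven days before the readout.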

Nc1ccn(C2OC(CO)C(O)C2(F)F)c(=O)n1 (centres undefined) + C#Cc1c(F)ccc2cc(O)cc(-c3ncc4c(N5CC6CCC(C5)N6)nc(OCC56CCCN5CC(F)C6)nc4c3F)c12
36.8 nM: IC50 (second compound 0.1 µM)
inactive: viability, T/C (second compound 0.0316 µM, first compound 0.00316 µM) 98.5% | viability, T/C (second compound 0.0316 µM, first compound 0.01 µM) 74.4% | viability, T/C (second compound 0.0316 µM, first compound 0.0316 µM) 58.3% | viability, T/C (second compound 0.0316 µM, first compound 0.1 µM) 48.5% | viability, T/C (second compound 0.0316 µM, first compound 0.316 µM) 36.6% | viability, T/C (second compound 0.0316 µM, first compound 1 µM) 32.4% | viability, T/C (second compound 0.1 µM, first compound 0.00316 µM) 96.9% | viability, T/C (second compound 0.1 µM, first compound 0.01 µM) 59.8% | viability, T/C (second compound 0.1 µM, first compound 0.0316 µM) 56.4% | viability, T/C (second compound 0.1 µM, first compound 0.1 µM) 46% | viability, T/C (second compound 0.1 µM, first compound 0.316 µM) 34.6% | viability, T/C (second compound 0.1 µM, first compound 1 µM) 31.4% | viability, T/C (second compound 0.316 µM, first compound 0.00316 µM) 58.1% | viability, T/C (second compound 0.316 µM, first compound 0.01 µM) 52.4% | viability, T/C (second compound 0.316 µM, first compound 0.0316 µM) 39.2% | viability, T/C (second compound 0.316 µM, first compound 0.1 µM) 32.1% | viability, T/C (second compound 0.316 µM, first compound 0.316 µM) 27.6% | viability, T/C (second compound 0.316 µM, first compound 1 µM) 26.5% | viability, T/C (second compound 1 µM, first compound 0.00316 µM) 50.5% | viability, T/C (second compound 1 µM, first compound 0.01 µM) 43% | viability, T/C (second compound 1 µM, first compound 0.0316 µM) 29.8% | viability, T/C (second compound 1 µM, first compound 0.1 µM) 20.9% | viability, T/C (second compound 1 µM, first compound 0.316 µM) 19.9% | viability, T/C (second compound 1 µM, first compound 1 µM) 18.9% | viability, T/C (second compound 3.16 µM, first compound 0.00316 µM) 35.4% | viability, T/C (second compound 3.16 µM, first compound 0.01 µM) 28.4% | viability, T/C (second compound 3.16 µM, first compound 0.0316 µM) 19.1% | viability, T/C (second compound 3.16 µM, first compound 0.1 µM) 14.9% | viability, T/C (second compound 3.16 µM, first compound 0.316 µM) 14.6% | viability, T/C (second compound 3.16 µM, first compound 1 µM) 14.5% | viability, T/C (second compound 10 µM, first compound 0.00316 µM) 33.6% | viability, T/C (second compound 10 µM, first compound 0.01 µM) 13.5% | viability, T/C (second compound 10 µM, first compound 0.0316 µM) 21.2% | viability, T/C (second compound 10 µM, first compound 0.1 µM) 13.9% | viability, T/C (second compound 10 µM, first compound 0.316 µM) 12.7% | viability, T/C (second compound 10 µM, first compound 1 µM) 10.1%
3.37 nM: IC50 (second compound 1 µM)
11.8 nM: IC50 (second compound 0.316 µM)
71.1 nM: IC50 (second compound 0.0316 µM)
< 3.16 nM: IC50 (second compound 3.16 µM) | IC50 (second compound 10 µM)

CC(=O)OC12COC1CC(O)C1(C)C(=O)C(O)C3=C(C)C(OC(=O)C(O)C(NC(=O)OC(C)(C)C)c4ccccc4)CC(O)(C(OC(=O)c4ccccc4)C21)C3(C)C (centres undefined)
inactive: viability, T/C (compound 0.0316 µM) 57.5% [middle of 4 runs] | viability, T/C (compound 0.1 µM) 58.8% [middle of 4 runs] | viability, T/C (compound 0.316 µM) 55.9% [middle of 4 runs] | viability, T/C (compound 1 µM) 61.6% [middle of 4 runs] | viability, T/C (compound 10 µM) 67.2% [middle of 4 runs]

CC(C)n1nc(-c2ccc3oc(N)nc3c2)c2c(N)ncnc21 + CCn1c(-c2cccnc2C(C)OC)c2c3cc(ccc31)N1CCOC(CC(NC(=O)C(C(C)C)N(C)C(=O)C3(F)CCN(C(=O)C#CC(C)(C)N(C)C)CC3)C(=O)N3CCCC(N3)C(=O)OCC(C)(C)C2)C1
17.7 nM: IC50 (second compound 0.3 µM)
20.1 nM: IC50 (second compound 0.003 µM) | IC50 (second compound 0.00949 µM)
21.8 nM: IC50 (second compound 0.000949 µM)
inactive: viability, T/C (second compound 0.000949 µM, first compound 0.000316 µM) 85.9% | viability, T/C (second compound 0.000949 µM, first compound 0.001 µM) 95.4% | viability, T/C (second compound 0.000949 µM, first compound 0.00316 µM) 82.9% | viability, T/C (second compound 0.000949 µM, first compound 0.01 µM) 66% | viability, T/C (second compound 0.000949 µM, first compound 0.0316 µM) 42.9% | viability, T/C (second compound 0.000949 µM, first compound 0.1 µM) 28.4% | viability, T/C (second compound 0.003 µM, first compound 0.000316 µM) 95.8% | viability, T/C (second compound 0.003 µM, first compound 0.001 µM) 104% | viability, T/C (second compound 0.003 µM, first compound 0.00316 µM) 87.3% | viability, T/C (second compound 0.003 µM, first compound 0.01 µM) 62.7% | viability, T/C (second compound 0.003 µM, first compound 0.0316 µM) 42.9% | viability, T/C (second compound 0.003 µM, first compound 0.1 µM) 34% | viability, T/C (second compound 0.00949 µM, first compound 0.000316 µM) 107% | viability, T/C (second compound 0.00949 µM, first compound 0.001 µM) 98.8% | viability, T/C (second compound 0.00949 µM, first compound 0.00316 µM) 94.5% | viability, T/C (second compound 0.00949 µM, first compound 0.01 µM) 63.9% | viability, T/C (second compound 0.00949 µM, first compound 0.0316 µM) 41.1% | viability, T/C (second compound 0.00949 µM, first compound 0.1 µM) 32.9% | viability, T/C (second compound 0.03 µM, first compound 0.000316 µM) 100% | viability, T/C (second compound 0.03 µM, first compound 0.001 µM) 93.8% | viability, T/C (second compound 0.03 µM, first compound 0.00316 µM) 76.9% | viability, T/C (second compound 0.03 µM, first compound 0.01 µM) 59.3% | viability, T/C (second compound 0.03 µM, first compound 0.0316 µM) 47.4% | viability, T/C (second compound 0.03 µM, first compound 0.1 µM) 29.1% | viability, T/C (second compound 0.0949 µM, first compound 0.000316 µM) 97.7% | viability, T/C (second compound 0.0949 µM, first compound 0.001 µM) 95.8% | viability, T/C (second compound 0.0949 µM, first compound 0.00316 µM) 79.4% | viability, T/C (second compound 0.0949 µM, first compound 0.01 µM) 68.1% | viability, T/C (second compound 0.0949 µM, first compound 0.0316 µM) 44% | viability, T/C (second compound 0.0949 µM, first compound 0.1 µM) 31.8% | viability, T/C (second compound 0.3 µM, first compound 0.000316 µM) 92.4% | viability, T/C (second compound 0.3 µM, first compound 0.001 µM) 93.8% | viability, T/C (second compound 0.3 µM, first compound 0.00316 µM) 81.7% | viability, T/C (second compound 0.3 µM, first compound 0.01 µM) 54.6% | viability, T/C (second compound 0.3 µM, first compound 0.0316 µM) 45.4% | viability, T/C (second compound 0.3 µM, first compound 0.1 µM) 44.9%
24.6 nM: IC50 (second compound 0.0949 µM)
22.1 nM: IC50 (second compound 0.03 µM)
